# Laboratory results taken from patent US20080038374A1, “New Use” (Lipopeptide AB, priority 2004, published 2008).
# What was measured:
# [1] = test system: hCAP18/LL-37; experiment: hCAP18 and LL-37 protein in acute wounds, Western blot; format: in vivo, human
# Description: (§1) The investigation was non-randomized, single blinded including four females and five males, age 22-30 years. Only fair skinned, young and healthy individuals were included and the tissue was obtained from the same body location in a non-sun exposed area. Each individual obtained 3 wounds in the left and the right inguinal region, respectively. The topical treatment with vitamin D was applied on one side and the control treatment on the contra lateral side. To each of the wounds on one side, 25 μg calcipotriol in 0.5 g ointment (Daivonex, LEO Pharma, Malmo, Sweden) was applied to a total test area of 2×2.25 cm, including one wound with surrounding intact skin. The control wounds in the opposite inguinal region were treated with vaseline (ACO, Stockholm, Sweden). All wounds were covered with inert dressing (Melolin, Smith and Nephew, Hull, U K; Mefix, Molnlycke A B, Gothenburg, Sweden; Tegaderm, 3M Health Care, St. Paul, USA). After 12 hours the dressing was changed and the treatment was repeated. In the first four individuals investigated the bandage was removed at 24 hours and the wounds were excised with a 6 mm biopsy punch and snap frozen. […]
# Protein was calculated from frozen biopsies from patients (n=5) cut in 50 μm sections and homogenized. […] Protein concentrations were measured by Protein Assay Kit (Bio-Rad Laboratories, Hercules, USA) based on the Bradford method (Bradford 1976). […]
# [2] = test system: hCAP18; experiment: hCAP18 mRNA in acute surgical wounds of healthy volunteers, Real-Time RT-PCR; format: in vivo, human; details: topical, 24 h, nine probands, relative to vaseline control wound
# Protocol: To assess whether treatment with a vitamin D compound can further enhance the up-regulation of hCAP18 during acute skin injury, fresh surgical wounds in healthy volunteers (n=9) were treated with vitamin D ointment.
# as §1, with “repeated.” for “repeated. In the first four individuals investigated the bandage was removed at 24 hours and the wounds were excised with a 6 mm biopsy punch and snap frozen.”
# Expression of hCAP18 mRNA was quantified by Real-Time PCR, as described in Example 1. […]
smiles,measurement,setting,value
C=C1/C(=C\C=C2/CCC[C@]3(C)[C@@H]([C@H](C)/C=C/[C@@H](O)C4CC4)CC[C@@H]23)C[C@@H](O)C[C@@H]1O [calcipotriol],immunoreactive bands of the processed peptide LL-37 versus control wounds,[1],"in all three individuals, stronger immunoreactive bands"
same,immunoreactive bands of the 18 kDa hCAP18 holoprotein versus control wounds,"[1]; 24 and 48 hours, five individuals",three of the five individuals investigated demonstrated stronger immunoreactive bands
same,up-regulation of hCAP18 mRNA in acute wounds,[2],enhances the up-regulation of hCAP18 mRNA
